From US20230391809A1, “HYDROPHOBIC COMPOSITIONS INCLUDING A HYDROPHILIC ACTIVE INGREDIENT AND METHODS RELATING THERETO” (BioMimetix JV, LLC, priority 2022, published 2023)
Like-named read-outs stand apart in the source and are kept apart here. Marks after values point to notes of the source that are not given here.

Protocol: The vial was placed in a first 3 mL low density polyethylene (LDPE) bag with a 1/6 desiccant and the bag was twist tie closed. The first bag was placed in a second 3 mL LDPE bag, twist tie closed, and placed in a high density polyethylene (HDPE) container.

CC[n+]1ccccc1-c1c2nc(c(-c3cccc[n+]3CC)c3ccc([n-]3)c(-c3cccc[n+]3CC)c3nc(c(-c4cccc[n+]4CC)c4ccc1[n-]4)C=C3)C=C2.[Cl-].[Cl-].[Cl-].[Cl-].[Cl-].[Mn+3] [BMX-010]
Appearance (25° C./60% RH, 3 Month): Brown Solid
Assay by UPLC (Wt % of an anhydrous basis, sum of Atropisomers) (25° C./60% RH, 3 Month): 100.3%
PSD D10 (25° C./60% RH, 3 Month): D10: 0.60 μm
PSD D50 (25° C./60% RH, 3 Month): D50: 1.1 μm
PSD D90 (25° C./60% RH, 3 Month): D90: 2.0 μm
Total Impurities by HPLC (Area %) (25° C./60% RH, 3 Month): 0.81%
Water Content by Karl Fischer (25° C./60% RH, 3 Month): 7.3%
Appearance (25° C./60% RH, 6 Month): Brown Solid
Assay by UPLC (Wt % of an anhydrous basis, sum of Atropisomers) (25° C./60% RH, 6 Month): 99.9%
PSD D10 (25° C./60% RH, 6 Month): D10: 0.62 μm*
PSD D50 (25° C./60% RH, 6 Month): D50: 1.2 μm*
PSD D90 (25° C./60% RH, 6 Month): D90: 2.0 μm*
Total Impurities by HPLC (Area %) (25° C./60% RH, 6 Month): 0.88%
Water Content by Karl Fischer (25° C./60% RH, 6 Month): 7.7%
XRPD (25° C./60% RH, 6 Month): Amorphous
Appearance (40° C./75% RH, 3 Month): Brown Solid
Assay by UPLC (Wt % of an anhydrous basis, sum of Atropisomers) (40° C./75% RH, 3 Month): 100.2%
PSD D10 (40° C./75% RH, 3 Month): D10: 0.60 μm
PSD D50 (40° C./75% RH, 3 Month): D50: 1.2 μm
PSD D90 (40° C./75% RH, 3 Month): D90: 2.1 μm
Total Impurities by HPLC (Area %) (40° C./75% RH, 3 Month): 1.3%
Water Content by Karl Fischer (40° C./75% RH, 3 Month): 7.5%
Appearance (40° C./75% RH, 6 Month): Brown Solid
Assay by UPLC (Wt % of an anhydrous basis, sum of Atropisomers) (40° C./75% RH, 6 Month): 97.9%**
PSD D10 (40° C./75% RH, 6 Month): D10: 0.61 μm*
PSD D50 (40° C./75% RH, 6 Month): D50: 1.2 μm*
PSD D90 (40° C./75% RH, 6 Month): D90: 2.1 μm*
Total Impurities by HPLC (Area %) (40° C./75% RH, 6 Month): 1.6%**
Water Content by Karl Fischer (40° C./75% RH, 6 Month): 8.5%
XRPD (40° C./75% RH, 6 Month): Amorphous
Appearance (T = 0): Brown Solid
Assay by UPLC (Wt % of an anhydrous basis, sum of Atropisomers) (T = 0): 97.5%
PSD D10 (T = 0): D10: 0.61 μm
PSD D50 (T = 0): D50: 1.2 μm
PSD D90 (T = 0): D90: 2.0 μm
Total Impurities by HPLC (Area %) (T = 0): 0.67%
Water Content by Karl Fischer (T = 0): 6.9%
XRPD (T = 0): Amorphous
Appearance (−20° C., 3 Month): Brown Solid
Assay by UPLC (Wt % of an anhydrous basis, sum of Atropisomers) (−20° C., 3 Month): 101.4%
PSD D10 (−20° C., 3 Month): D10: 0.59 μm
PSD D50 (−20° C., 3 Month): D50: 1.1 μm
PSD D90 (−20° C., 3 Month): D90: 2.0 μm
Total Impurities by HPLC (Area %) (−20° C., 3 Month): 0.63%
Water Content by Karl Fischer (−20° C., 3 Month): 7.0%
Appearance (−20° C., 6 Month): Brown Solid
Assay by UPLC (Wt % of an anhydrous basis, sum of Atropisomers) (−20° C., 6 Month): 100.7%
PSD D10 (−20° C., 6 Month): D10: 0.59 μm*
PSD D50 (−20° C., 6 Month): D50: 1.1 μm*
PSD D90 (−20° C., 6 Month): D90: 1.9 μm*
Total Impurities by HPLC (Area %) (−20° C., 6 Month): 0.63%
Water Content by Karl Fischer (−20° C., 6 Month): 7.4%
XRPD (−20° C., 6 Month): Amorphous
